# Source: ChEMBL document CHEMBL4368931, “Discovery of novel thienoquinoline-2-carboxamide chalcone derivatives as antiproliferative EGFR tyrosine kinase inhibitors” (Bioorg Med Chem, 2019)
# Columns and labels:
# [1] = tested on: NCI-H460; assay: Antiproliferative activity against human NCI-H460 cells after 48 hrs by propidium iodide fluorescence assay; assay type: functional, cell-based; conditions: NCI-H460, 48 h
# [2] = Cytotoxicity in human MCF10A cells assessed as cell viability incubated for 4 days by MTT assay; assay type: cell-based, MCF-10A; parameters: concentration or dose not given beside the values; conditions: read-out: Activity
# [3] = tested on: MIA PaCa-2; assay: Antiproliferative activity against human MIAPaCa2 cells after 48 hrs by propidium iodide fluorescence assay; assay type: functional, cell-based; conditions: MIA PaCa-2, 48 h
# [4] = tested on: PANC-1; assay: Antiproliferative activity against human PANC1 cells after 48 hrs by propidium iodide fluorescence assay; assay type: functional, cell-based; conditions: PANC-1, 48 h
# [5] = tested on: A-375; assay: Antiproliferative activity against human A375 cells after 48 hrs by propidium iodide fluorescence assay; assay type: functional, cell-based; conditions: A-375, 48 h
# [6] = tested on: HT-29; assay: Antiproliferative activity against human HT-29 cells after 48 hrs by propidium iodide fluorescence assay; assay type: functional, cell-based; conditions: HT-29, 48 h
# [7] = tested on: NCI-H460; assay: Induction of apoptosis in human NCI-H460 cells assessed as necrotic cells at 0.2 uM after 24 hrs by Annexin V-FITC/propidium iodide staining-based flow cytometric analysis relative to control; assay type: functional
# [8] = tested on: NCI-H460; assay: Cell cycle arrest in human NCI-H460 cells assessed as accumulation of cells at S phase at 0.2 uM after 24 hrs by propidium iodide staining-based flow cytometric analysis (reference value: 42.61%); assay type: functional
# [9] = tested on: NCI-H460; assay: Cell cycle arrest in human NCI-H460 cells assessed as accumulation of cells at G2 phase at 0.2 uM after 24 hrs by propidium iodide staining-based flow cytometric analysis (reference value: 10%); assay type: functional
# [10] = target: Epidermal growth factor receptor (Homo sapiens, UniProt P00533); assay: Inhibition of His6-tagged EGFR cytoplasmic domain (645 to 1186 residues) (unknown origin) expressed in baculovirus infected Sf9 insect cells after 10 mins by DELFIA/time-resolved fluorometry
# Chain of Epidermal growth factor receptor (P00533 whole entry, the tested form may be a part): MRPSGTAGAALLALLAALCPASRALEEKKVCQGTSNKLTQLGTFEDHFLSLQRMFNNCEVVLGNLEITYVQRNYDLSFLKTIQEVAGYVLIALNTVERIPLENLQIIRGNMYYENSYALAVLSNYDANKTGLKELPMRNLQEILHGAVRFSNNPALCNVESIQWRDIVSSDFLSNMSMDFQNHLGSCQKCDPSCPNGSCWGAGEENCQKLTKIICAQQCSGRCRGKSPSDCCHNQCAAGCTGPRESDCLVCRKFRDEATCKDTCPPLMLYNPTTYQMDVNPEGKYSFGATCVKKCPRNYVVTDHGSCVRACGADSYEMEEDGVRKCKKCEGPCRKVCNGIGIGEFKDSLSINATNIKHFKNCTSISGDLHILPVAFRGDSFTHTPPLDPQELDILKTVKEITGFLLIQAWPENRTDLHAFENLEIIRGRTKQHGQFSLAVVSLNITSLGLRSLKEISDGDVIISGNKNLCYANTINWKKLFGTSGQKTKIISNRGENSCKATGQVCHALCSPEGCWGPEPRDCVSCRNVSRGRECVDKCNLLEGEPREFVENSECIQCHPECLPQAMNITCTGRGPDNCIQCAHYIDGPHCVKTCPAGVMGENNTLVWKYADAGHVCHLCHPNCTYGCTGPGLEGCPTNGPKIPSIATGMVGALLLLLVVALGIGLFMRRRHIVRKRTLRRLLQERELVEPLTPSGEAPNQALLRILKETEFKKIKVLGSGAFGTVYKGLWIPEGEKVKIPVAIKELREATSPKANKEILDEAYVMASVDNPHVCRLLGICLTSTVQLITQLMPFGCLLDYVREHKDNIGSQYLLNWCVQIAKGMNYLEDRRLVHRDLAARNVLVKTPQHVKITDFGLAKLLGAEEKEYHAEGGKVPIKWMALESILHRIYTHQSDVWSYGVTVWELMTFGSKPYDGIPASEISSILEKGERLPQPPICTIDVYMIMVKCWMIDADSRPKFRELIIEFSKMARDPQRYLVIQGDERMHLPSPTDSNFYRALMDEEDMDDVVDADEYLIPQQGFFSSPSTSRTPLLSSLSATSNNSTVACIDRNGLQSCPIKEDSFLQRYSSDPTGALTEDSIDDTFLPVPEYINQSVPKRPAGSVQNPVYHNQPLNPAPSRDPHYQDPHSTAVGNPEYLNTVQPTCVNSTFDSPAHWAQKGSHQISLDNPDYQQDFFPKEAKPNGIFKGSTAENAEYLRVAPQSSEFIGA
# [11] = tested on: NCI-H460; assay: Induction of apoptosis in human NCI-H460 cells assessed as late apoptotic cells at 0.2 uM after 24 hrs by Annexin V-FITC/propidium iodide staining-based flow cytometric analysis relative to control; assay type: functional
# [12] = tested on: NCI-H460; assay: Cell cycle arrest in human NCI-H460 cells assessed as apoptotic cells at 0.2 uM after 24 hrs by propidium iodide staining-based flow cytometric analysis (reference value: 1.55%); assay type: functional
# [13] = tested on: NCI-H460; assay: Cell cycle arrest in human NCI-H460 cells assessed as accumulation of cells at G1 phase at 0.2 uM after 24 hrs by propidium iodide staining-based flow cytometric analysis (reference value: 47.39%); assay type: functional
# [14] = tested on: NCI-H460; assay: Induction of apoptosis in human NCI-H460 cells assessed as early apoptotic cells at 0.2 uM after 24 hrs by Annexin V-FITC/propidium iodide staining-based flow cytometric analysis relative to control; assay type: functional
# [15] = target: Serine/threonine-protein kinase Chk2 (Homo sapiens, UniProt O96017); assay: Inhibition of CHK2 (unknown origin)
# Chain of Serine/threonine-protein kinase Chk2 (O96017 whole entry): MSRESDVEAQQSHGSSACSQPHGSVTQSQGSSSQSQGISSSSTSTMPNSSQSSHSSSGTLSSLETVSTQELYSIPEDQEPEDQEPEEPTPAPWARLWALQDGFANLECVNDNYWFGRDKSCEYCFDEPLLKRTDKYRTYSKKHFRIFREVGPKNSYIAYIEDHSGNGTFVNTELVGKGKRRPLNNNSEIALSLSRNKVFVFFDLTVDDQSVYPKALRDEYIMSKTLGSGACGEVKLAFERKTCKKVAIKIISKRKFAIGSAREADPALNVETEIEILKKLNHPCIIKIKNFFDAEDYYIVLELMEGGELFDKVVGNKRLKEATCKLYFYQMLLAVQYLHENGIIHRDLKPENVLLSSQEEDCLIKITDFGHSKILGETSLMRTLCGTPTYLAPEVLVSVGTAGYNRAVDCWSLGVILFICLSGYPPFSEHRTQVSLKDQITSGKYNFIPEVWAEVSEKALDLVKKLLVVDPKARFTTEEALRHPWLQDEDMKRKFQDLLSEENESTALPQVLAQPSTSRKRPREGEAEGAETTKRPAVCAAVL
# [16] = target: Vascular endothelial growth factor receptor 1 (Homo sapiens, UniProt P17948); assay: Inhibition of VEGFR1 (unknown origin)
# Chain of Vascular endothelial growth factor receptor 1 (P17948 whole entry): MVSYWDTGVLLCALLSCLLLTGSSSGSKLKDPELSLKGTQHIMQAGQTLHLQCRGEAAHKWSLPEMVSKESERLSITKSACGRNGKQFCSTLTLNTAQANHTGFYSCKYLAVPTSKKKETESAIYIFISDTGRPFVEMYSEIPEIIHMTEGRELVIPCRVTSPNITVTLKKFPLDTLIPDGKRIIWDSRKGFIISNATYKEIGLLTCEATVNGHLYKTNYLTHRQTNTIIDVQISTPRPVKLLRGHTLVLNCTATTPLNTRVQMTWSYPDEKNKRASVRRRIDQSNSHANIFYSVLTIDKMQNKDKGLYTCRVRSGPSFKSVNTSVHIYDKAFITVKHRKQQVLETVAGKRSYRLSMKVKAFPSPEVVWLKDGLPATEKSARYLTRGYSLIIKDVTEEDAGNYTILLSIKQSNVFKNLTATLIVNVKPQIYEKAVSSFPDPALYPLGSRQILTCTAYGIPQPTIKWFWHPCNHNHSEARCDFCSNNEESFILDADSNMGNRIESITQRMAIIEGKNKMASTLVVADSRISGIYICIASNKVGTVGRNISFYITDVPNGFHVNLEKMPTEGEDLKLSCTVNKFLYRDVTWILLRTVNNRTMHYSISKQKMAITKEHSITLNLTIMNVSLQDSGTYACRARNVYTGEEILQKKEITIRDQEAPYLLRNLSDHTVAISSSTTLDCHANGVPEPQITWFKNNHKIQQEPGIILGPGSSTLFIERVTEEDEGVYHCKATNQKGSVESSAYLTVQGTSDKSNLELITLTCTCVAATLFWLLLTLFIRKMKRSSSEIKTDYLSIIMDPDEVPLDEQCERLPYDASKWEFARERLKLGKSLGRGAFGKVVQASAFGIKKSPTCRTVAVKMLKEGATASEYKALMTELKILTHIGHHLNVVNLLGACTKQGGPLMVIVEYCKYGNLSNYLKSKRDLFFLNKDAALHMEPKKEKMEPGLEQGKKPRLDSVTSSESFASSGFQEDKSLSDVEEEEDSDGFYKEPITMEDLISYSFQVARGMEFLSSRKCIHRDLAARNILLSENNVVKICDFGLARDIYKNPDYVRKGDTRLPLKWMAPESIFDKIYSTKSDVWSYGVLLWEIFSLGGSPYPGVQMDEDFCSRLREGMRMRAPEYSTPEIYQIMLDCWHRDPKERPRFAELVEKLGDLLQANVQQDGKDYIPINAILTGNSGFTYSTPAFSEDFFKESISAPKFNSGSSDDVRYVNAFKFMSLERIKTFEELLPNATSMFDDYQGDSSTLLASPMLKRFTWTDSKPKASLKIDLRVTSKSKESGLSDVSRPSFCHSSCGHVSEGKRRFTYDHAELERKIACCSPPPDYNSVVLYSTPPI
IC50 [1] [µM],IC50 [3] [µM],IC50 [4] [µM],IC50 [5] [µM],IC50 [6] [µM],IC50 [10] [µM],IC50 [15] [µM],IC50 [16] [µM],SMILES,viability at 96 h [2] [%],Activity [7] [%],Activity [8] [%],Activity [9] [%],Activity [11] [%],Activity [12] [%],Activity [13] [%],Activity [14] [%]
6.7,6.2,5.9,19.4,7.9,–,–,–,O=C(/C=C/c1ccc(Cl)cc1)c1ccc(NC(=O)c2cc3cc4ccccc4nc3s2)cc1,> 91,–,–,–,–,–,–,–
0.9,0.9,1.2,2,1,0.5,–,–,COc1ccc(/C=C/C(=O)c2ccc(NC(=O)c3cc4cc5cc(C)ccc5nc4s3)cc2)cc1OC,> 91,2.31,17.45,38.31,9.08,15.72,44.24,7.22
–,–,–,–,–,–,1.7,0.54,CCCCNc1ncnc2c1sc1nc3ccccc3cc12,–,–,–,–,–,–,–,–
0.2,0.8,1,1.6,0.5,0.7,–,–,COc1ccc2nc3sc(C(=O)Nc4ccc(C(=O)/C=C/c5ccc(OC)c(OC)c5)cc4)cc3cc2c1,> 91,–,–,–,–,–,–,–
9.7,6.2,6.7,28.4,9.4,–,–,–,COc1cccc(/C=C/C(=O)c2ccc(NC(=O)c3cc4cc5ccccc5nc4s3)cc2)c1,> 91,–,–,–,–,–,–,–
1.2,0.5,–,2.4,1.1,1.6,–,–,COc1ccc(/C=C/C(=O)c2ccc(NC(=O)c3cc4cc5ccccc5nc4s3)cc2)cc1OC,> 91,–,–,–,–,–,–,–
5.5,4.9,4.5,> 50,6.7,2.8,–,–,COc1cccc(/C=C/C(=O)c2ccc(NC(=O)c3cc4cc5cc(OC)ccc5nc4s3)cc2)c1,> 91,–,–,–,–,–,–,–
9.2,9.4,9.6,39.6,11.6,–,–,–,Cc1ccc2nc3sc(C(=O)Nc4ccc(C(=O)/C=C/c5ccc(Cl)cc5)cc4)cc3cc2c1,> 91,–,–,–,–,–,–,–
6.5,5.9,5.5,16.7,7.8,–,–,–,COc1ccc2nc3sc(C(=O)Nc4ccc(C(=O)/C=C/c5ccccc5)cc4)cc3cc2c1,> 91,–,–,–,–,–,–,–
3.6,3.7,3.5,17.6,4.2,2.9,–,–,COc1cccc(/C=C/C(=O)c2ccc(NC(=O)c3cc4cc5cc(C)ccc5nc4s3)cc2)c1,> 91,–,–,–,–,–,–,–
–,12.5,–,> 50,14.9,–,–,–,O=C(/C=C/c1ccccc1)c1ccc(NC(=O)c2cc3cc4ccccc4nc3s2)cc1,> 91,–,–,–,–,–,–,–
3.2,2,2.2,6.4,3.7,3.2,–,–,COc1cc(/C=C/C(=O)c2ccc(NC(=O)c3cc4cc5cc(C)ccc5nc4s3)cc2)cc(OC)c1OC,> 91,–,–,–,–,–,–,–
9.7,9.2,9.5,25.9,10.4,–,–,–,Cc1ccc2nc3sc(C(=O)Nc4ccc(C(=O)/C=C/c5ccccc5)cc4)cc3cc2c1,> 91,–,–,–,–,–,–,–
12.2,14.4,13.8,44.6,17.2,–,–,–,COc1ccc2nc3sc(C(=O)Nc4ccc(C(=O)/C=C/c5ccc(Cl)cc5)cc4)cc3cc2c1,> 91,–,–,–,–,–,–,–
2.7,1.7,1.4,4.2,2.5,1.2,–,–,COc1cc(/C=C/C(=O)c2ccc(NC(=O)c3cc4cc5ccccc5nc4s3)cc2)cc(OC)c1OC,> 91,–,–,–,–,–,–,–
1.9,1,1.4,3.8,1.4,1.4,–,–,COc1ccc2nc3sc(C(=O)Nc4ccc(C(=O)/C=C/c5cc(OC)c(OC)c(OC)c5)cc4)cc3cc2c1,> 91,–,–,–,–,–,–,–
